Usually IC50 stands for the concentration that gives 50% inhibition. A word on the CC50: it is the concentration giving 50% cytotoxicity. A low value points to harm at low concentration.

Read-outs that look alike come from different tables or passages of the source. Some results are limits rather than exact numbers.

For data set [1], the system named is trypanothione reductase. On the set-up: method as in PMID 21717278. Conditions: cited from earlier work.
Data set [2] has as its system L. donovani axenic amastigotes. More on the design: method as in PMID 21717278. As to conditions: L. donovani axenic amastigotes ref 32; cited from earlier work.
For data set [3], the system named is L. donovani promastigotes. On the set-up: method as in PMID 21717278. Conditions: L. donovani promastigotes ref 32; cited from earlier work.
The subject of data set [4] is L. amazonensis intracellular amastigotes. The data set can be described thus: Alamar Blue assay against intracellular amastigotes in murine macrophages. Conditions: Leishmania amazonensis, Macrophage; intracellular amastigotes of L. amazonensis. The format is cell-based. How it is done:
Briefly, in a 96-well plate, murine macrophages (2 × 10^5 cells/mL) were incubated in RPMI medium at 37 °C and 5 % CO2 atmosphere for 2–4 h. Promastigote forms of L. amazonensis (2 × 10^6 cells/mL) were added to reach a 1:10 macrophage:parasite ration, and after 24 h of incubation, the cells were washed to discard the not-introduced parasites. Serial dilutions of the compound were added in 100 µL of RPMI medium. Following 24 h of incubation, the plate was washed, and the cells were broken with SDS 0.05% for 30 s. Fresh medium was added, and 48 h later, 10% Alamar Blue® reagent was added.
For orientation: The colour change of resazurin is a common sign of viable cells or microbes.

For data set [5], the system named is L. amazonensis promastigotes. The data set can be described thus: Chromatin condensation analysis (Hoechst 33342/PI). The class given is cell-based, Leishmania amazonensis. As to conditions: promastigotes treated with IC90, Hoechst/PI. How it is done:
(§1) After incubation for 24 h at 26 °C, samples were centrifuged (3000 rpm, 10 min, 4 °C) and resuspended in 50 µL of PBS buffer. Different events involved in parasite cell death were studied following the manufacturer’s instructions for each kit.
The Invitrogen Chromatin Condensation/Dead Cell Apoptosis Kit, Hoechst 33342/propidium iodide (PI), was used to determine whether chromatin condensation was produced in the treated parasites. After adding the kit, the parasites were incubated for 30 min at 26 °C in the dark. The results were observed under the EVOS fluorescence microscope using DAPI (excitation 350 nm/emission 461 nm for Hoechst) and RFP (excitation 535 nm/emission 617 nm for PI) light cubes. The obtained images were divided into three types of results: low fluorescence of both stains when the cells were alive, intense fluorescence when the cell had condensed chromatin (programmed cell death), and intense red fluorescence when the cell had died.

Data set [6] relates to Leishmania amazonensis promastigotes. Briefly: Alamar Blue assay against promastigotes. The class given is cell-based. As to conditions: L. amazonensis promastigotes. How it is done:
Leishmania amazonensis (MHOM/BR/77/LTB0016) promastigotes were cultured in RPMI 1640 medium (Gibco, Waltham, MA, USA), supplemented with 10 % FBS at 26 °C. Additionally, for maintenance, the promastigotes were cultured in SND medium (Sigma-Aldrich, Darmstadt, Germany) supplemented with 10 % FBS at 26 °C. Both media were supplemented with gentamicin at 10 µg/mL.
Compounds 1–5 were tested against promastigotes of Leishmania amazonensis using the colorimetric assay based on the Alamar Blue® reagent. In a 96-well plate, serial dilutions of the compounds and the promastigote form of the parasite (10^6 cells/mL) were added at a final volume of 200 µL.

The nature of data set [7]: Cytotoxic activity, Alamar Blue. The class given is cell-based. Conditions: mouse, murine macrophages J774A.1, 24 h. How it is done: Murine macrophages (J774A.1) ATCC TIB-67 were cultured in RPMI, supplemented with 10% FBS at 37 °C and 5 % CO2 atmosphere.
In a 96-well plate, macrophages (2 × 10^5 cells/mL) were added. After completing the adherence (2–4 h), macrophages were incubated with serial dilutions of compounds 1–5. […] The selectivity index (SI) was calculated as the ratio of CC50 and IC50 [38].

The subject of data set [8] is Leishmania amazonensis promastigotes. The data set can be described thus: ATP level analysis (CellTiter-Glo). The class given is cell-based. As to conditions: 24 h incubation with IC90, compared to untreated parasites. On the procedure:
as §1
ATP levels were measured using the CellTiter-Glo® Luminescent Cell Viability Assay kit (Promega, Fitchburg, WI, USA) and the EnSpire Multimode Plate Reader® (PerkinElmer, Waltham, MA, USA). After 24 h of incubation with laurequinone (1), the pellet was resuspended in the buffer and the kit. After 2 min of agitation and 10 min of incubation at room temperature in the dark, the luminescence was measured with the EnSpire Multimode Plate Reader®. The results were plotted against the negative control of untreated cells. Sodium azide (20 mM) was added as a positive control.
(In general: In ATP-based viability assays light output follows the ATP content of the culture.)

For data set [9] the test system is unchanged. The data set can be described thus: Mitochondrial membrane potential analysis (JC-1). The class given is cell-based. Conditions: 24 h incubation with IC90, JC-1. How it is done: as §1
The JC-1 Mitochondrial Membrane Potential Assay Kit® (Cayman Chemical, Ann Arbor, MI, USA) was used to determine whether an alteration in the mitochondrial potential occurred during cell death. The parasites treated with laurequinone were incubated with the staining solution for 20 min at 26 °C in the dark. Green and red fluorescence were measured using the EnSpire Multimode Plate Reader® (PerkinElmer). The results were expressed as the percentage relative to the untreated cells of the red (J-aggregates 540/570 nm)/green ratio (J-monomers 485/535 nm). The membrane-permeant JC-1 dye is widely used in apoptosis studies to monitor mitochondrial health. […] Consequently, mitochondrial depolarization is indicated by a decrease in the red/green fluorescence intensity ratio. Sodium azide (20 mM) was added as a positive control.

In data set [10] the test system is L. amazonensis promastigotes. Briefly: Reactive oxygen species analysis (CellROX Deep Red). The class given is cell-based, Leishmania amazonensis. As to conditions: 24 h incubation with IC90. How it is done: as §1
Oxidative stress is the result of an imbalance between the production of reactive oxygen species (ROS) and the cells’ ability to remove them. The CellROX® Deep Red Reagent (ThermoFisher Scientific, Waltham, MA, USA) was used to measure the oxidative stress. […] Treated parasites were incubated and resuspended in the buffer, the kit was added, and the plate was incubated for 30 min at 26 °C in the dark. Oxidative stress is represented as red fluorescence in the images obtained with the Cy5 light cube (excitation 644 nm/emission 665 nm) of the EVOS® FL Cell Imaging System (ThermoFisher Scientific, Waltham, MA, USA). Untreated parasites were used as a negative control, and hydrogen peroxide (600 mM) was used as a positive control.

Data set [11] concerns L. amazonensis promastigotes. The data set can be described thus: Plasma membrane permeability (SYTOX Green). Conditions: 24 h incubation with IC90. The format is cell-based, Leishmania amazonensis. How it is done:
as §1
The SYTOX Green assay (Life Technologies, Madrid, Spain) was used to determine the damage in the plasma membrane permeability of treated cells. Parasites were incubated for 24 h with the compound and the stain was added and incubated for 15 min. […] Triton X-100, a well-known non-ionic surfactant, was added at 0.5% for 3 h before staining, as a positive control.

For data set [12], the system named is L. amazonensis promastigotes. The data set can be described thus: Phosphatidylserine externalization (annexin V/PI, TALI cytometer). The format is cell-based, Leishmania amazonensis. Conditions: 24 h incubation with IC90. How it is done:
as §1
A double-staining assay with annexin V/propidium iodide (PI) was performed using the Tali® Apoptosis Kit–Annexin V Alexa Fluor® 488 (Invitrogen^TM, Waltham, MA, USA). Briefly, after incubating the treated parasites for 24 h, they were washed with the buffer and incubated with annexin V for 20 min. Promastigotes were centrifuged and resuspended in buffer containing PI and incubated for 3 min. Finally, the stained cells were loaded into a slide and inserted in a TALI^TM image-based cytometer (Life Technologies, Carlsbad, CA, USA). Data were expressed in percentages, divided into three groups: apoptotic cells (green fluorescence), dead cells (red or red and green fluorescence), and live cells (no fluorescence), provided by TALI® data acquisition and analysis software (Life Technologies).

The mark [13] stands for this setting: 72 h total, read-out: IC50 Promastigotes.
The mark [14] stands for this setting: Leishmania amazonensis, 72 h, 72 h total, read-out: IC50 Promastigotes.

On to `CC1=CC(=O)c2c(O)cccc2C1=O` [Plumbagin], for which the “mechanism of action on trypanothione reductase” value in [1] is reported as “non-competitive inhibition of trypanothione reductase”. Further, the values for the IC50 in data set [2] and in [3] were 0.21 µM and 0.34 µM, respectively.

On to `CC1=CC(=O)C([C@]2(C)CC[C@@H]3C[C@@]32C)=CC1=O` [Laurequinone (1), laurequinone], for which the IC50 in data set [4] is 16.7 ± 6.08 µM; in [6] (setting [13]) it was 1.87 ± 0.17 µM; in data set [6] (setting [14]) it was below 2 µM; in data set [6] (Leishmania amazonensis, expressed in µg/mL, read-out: IC50) it was 0.43 µg/mL. Moreover, in [5], the chromatin condensation entry is “no chromatin condensation was observed”. For the same molecule, in [7] (J774A.1 macrophages), the CC50 at 24 h came to 42.1 ± 1.3 µM. In [8], the ATP levels result is given as “no change in ATP levels”. Moreover, in [9], the “mitochondrial membrane potential (ΔΨm)” value is reported as “significant decrease in mitochondrial membrane potential”. In addition, in [10], the “ROS accumulation (CellROX Deep Red fluorescence)” value is “noticeable increase in visual fluorescence of CellROX Deep Red”. In addition, the “plasma membrane permeability (SYTOX Green fluorescence)” value in data set [11] is reported as “no significant green fluorescence was observed”. The “cell population with exposed phosphatidylserine residues” value in data set [12] is listed as “approximately 30%”.

For `C=C1[C@@H](C)CC[C@@]1(C)c1cc(Br)c(C)cc1O` [Isolaurinterol (4), isolaurinterol], the figures for the IC50 in data set [6] (setting [13]) and in data set [6] (setting [14]) were 10.1 ± 1.69 µM and below 15 µM, respectively. Moreover, in [7], the midpoint of cytotoxicity, the CC50 at 24 h, lay at 24.6 ± 2.37 µM.

Regarding `Cc1cc2c(cc1Br)[C@]1(C)CC[C@H](C)[C@]1(C)O2` [Aplysin (5), aplysin], the 50% inhibitory concentration (IC50) in [6] (setting [14]) stood at 54.1 µM. The CC50 at 24 h in data set [7] is 1100 ± 40.6 µM.

As for `CCCCCCCCCCCCCCCCOP(=O)([O-])OCC[N+](C)(C)C` [Miltefosine, miltefosine, reference compound], the IC50 in data set [4] is 3.12 ± 0.29 µM; in data set [6] (setting [14]), 6.48 ± 0.25 µM. Further, the CC50 at 24 h in [7] (J774A.1 macrophages) came to 72.2 ± 3.07 µM.

For `Cc1cc(O)c([C@]2(C)CC[C@@H]3C[C@@]32C)cc1Br` [Laurinterol (2), laurinterol], the IC50 turned out to be 34.7 ± 4.06 µM in data set [4] and 34.5 ± 6.44 µM in data set [6] (setting [14]). The same molecule registered a CC50 at 24 h in [7] of 80.1 ± 7.79 µM.

On to `Cc1ccc([C@]2(C)CC[C@@H]3C[C@@]32C)c(O)c1` [Debromolaurinterol (3), debromolaurinterol], for which the figures for the IC50 in data set [4], in data set [6] (setting [13]) and in data set [6] (setting [14]) were 24.3 ± 5.09 µM, 12.48 ± 0.05 µM and below 15 µM, respectively. Moreover, the CC50 at 24 h in data set [7] (J774A.1 macrophages) turned out to be 70.1 ± 12.9 µM.

These data come from PMC10304164, “Laurequinone, a Lead Compound against Leishmania” (Marine Drugs, 2023).
